For series [1], the system named is Staphylococcus aureus. The series can be described thus: Antibacterial activity against Staphylococcus aureus ATCC 4163 after 18 hrs by microdilution method. In kind it is functional. As to conditions: ATCC 4163, 18 h. (Dilution methods test growth across graded concentrations, often in twofold steps.)
In series [2] the test system is Staphylococcus aureus. Nature of the series: Antibacterial activity against Staphylococcus aureus ATCC 25923 after 18 hrs by microdilution method. Type of series: functional. The following applies: ATCC 25923, 18 h.
The subject of series [3] is Staphylococcus aureus. Nature of the series: Antibacterial activity against Staphylococcus aureus ATCC 6538 after 18 hrs by microdilution method. Type of series: functional. As to conditions: ATCC 6538, 18 h.
Series [4] concerns Staphylococcus epidermidis. The series can be described thus: Antibacterial activity against Staphylococcus epidermidis ATCC 12228 after 18 hrs by microdilution method. Type of series: functional. The following applies: ATCC 12228, 18 h.
The subject of series [5] is Staphylococcus epidermidis. The series can be described thus: Antibacterial activity against Staphylococcus epidermidis ATCC 49134 after 18 hrs by microdilution method. In kind it is functional. The following applies: ATCC 49134, 18 h.
For series [6], the system named is Staphylococcus aureus. Nature of the series: Antibacterial activity against methicillin resistant Staphylococcus aureus isolate 1 after 18 hrs by microdilution method. In kind it is functional. The following applies: isolate 1, 18 h.
Series [7] relates to Staphylococcus aureus. Nature of the series: Antibacterial activity against methicillin resistant Staphylococcus aureus isolate 2 after 18 hrs by microdilution method. Type of series: functional. As to conditions: isolate 2, 18 h.
Series [8] concerns Staphylococcus aureus. Nature of the series: Antibacterial activity against methicillin resistant Staphylococcus aureus isolate 3 after 18 hrs by microdilution method. In kind it is functional. The following applies: isolate 3, 18 h.
The test system of series [9] is Staphylococcus aureus. Nature of the series: Antibacterial activity against methicillin resistant Staphylococcus aureus isolate 4 after 18 hrs by microdilution method. Type of series: functional. The following applies: isolate 4, 18 h.
The subject of series [10] is Staphylococcus aureus. The series can be described thus: Antibacterial activity against methicillin resistant Staphylococcus aureus isolate 5 after 18 hrs by microdilution method. Type of series: functional. The following applies: isolate 5, 18 h.
A further series concerns Escherichia coli. The series can be described thus: Antibacterial activity against Escherichia coli ATCC 25922 after 18 hrs by microdilution method. In kind it is functional. The following applies: ATCC 25922, 18 h.
A further series deals with Pseudomonas aeruginosa. Nature of the series: Antibacterial activity against Pseudomonas aeruginosa NCTC 6749 after 18 hrs by microdilution method. Type of series: functional. The following applies: NCTC 6749, 18 h.
Series [11] can be described thus: Solubility in water at pH 7 by UV-vis spectrophotometric analysis. In kind it is physicochemical.
The nature of series [12]: Octanol-water partition coefficient, logP of the compound after 1 hr by UV-vis spectrophotometric analysis. Type of series: physicochemical.

The source of these data is ChEMBL document CHEMBL3797048, “Structure-activity relationship studies of new rifamycins containing l-amino acid esters as inhibitors of bacterial RNA polymerases” (Eur J Med Chem, 2016).

≈ marks a conversion by molar mass, not a printed value.

`CCOC(=O)[C@H](Cc1c[nH]c2ccccc12)NCc1c2c(O)c3c(O)c(C)c4c(c3c1O)C(=O)[C@@](C)(O/C=C/[C@H](OC)[C@@H](C)[C@@H](OC(C)=O)[C@H](C)[C@H](O)[C@H](C)[C@@H](O)[C@@H](C)/C=C/C=C(/C)C(=O)N2)O4`: the MIC worked out at 0.5 µg/mL (≈ 0.531 µM) against Staphylococcus aureus [1]; 1 µg/mL (≈ 1.06 µM) against Staphylococcus aureus [2]; 0.25 µg/mL (≈ 0.265 µM) against Staphylococcus aureus [3]; 0.063 µg/mL (≈ 0.0669 µM) in [4]; 0.063 µg/mL (≈ 0.0669 µM) in series [5]; 0.5 µg/mL (≈ 0.531 µM) in the series with Staphylococcus aureus [6]. The MIC in the series with Staphylococcus aureus [7] is 0.5 µg/mL (≈ 0.531 µM); in the series with Staphylococcus aureus [8], 0.5 µg/mL (≈ 0.531 µM); against Staphylococcus aureus [9] it was 0.5 µg/mL (≈ 0.531 µM); with Staphylococcus aureus [10] it was 0.5 µg/mL (≈ 0.531 µM); with Escherichia coli, above 2 µg/mL; in the series on Pseudomonas aeruginosa, above 2 µg/mL. Moreover, the concentration in solution in series [11] (solubility) was 30 µg/mL (≈ 31.8 µM). Also, in [12], the logP at 1 h amounted to 2.48.

In the case of `CCOC(=O)[C@H](CCCNC(=N)N)NCc1c2c(O)c3c(O)c(C)c4c(c3c1O)C(=O)[C@@](C)(O/C=C/[C@H](OC)[C@@H](C)[C@@H](OC(C)=O)[C@H](C)[C@H](O)[C@H](C)[C@@H](O)[C@@H](C)/C=C/C=C(/C)C(=O)N2)O4`, the MIC in the series on Staphylococcus aureus [1] is 1 µg/mL (≈ 1.1 µM); against Staphylococcus aureus [2], above 2 µg/mL; in the series on Staphylococcus aureus [3] it was 1 µg/mL (≈ 1.1 µM); in [4], 0.25 µg/mL (≈ 0.274 µM); in [5], 0.5 µg/mL (≈ 0.548 µM); against Staphylococcus aureus [6], 2 µg/mL (≈ 2.19 µM). Moreover, the minimal inhibitory concentration (MIC) in the series with Staphylococcus aureus [7] and in the series with Staphylococcus aureus [8] was 2 µg/mL (≈ 2.19 µM) in each case. In [11], the concentration in solution (solubility) was 90 µg/mL (≈ 98.7 µM). For the same molecule, the logP at 1 h in [12] was 2.22.

As to `CO[C@H]1/C=C/O[C@@]2(C)Oc3c(C)c(O)c4c(O)c(c(CN[C@@H](Cc5ccccc5)C(=O)OCc5ccccc5)c(O)c4c3C2=O)NC(=O)/C(C)=C\C=C\[C@H](C)[C@H](O)[C@@H](C)[C@@H](O)[C@@H](C)[C@H](OC(C)=O)[C@@H]1C`, the minimum inhibitory concentration (MIC) in the series with Staphylococcus aureus [1] was found to be 0.5 µg/mL (≈ 0.518 µM); against Staphylococcus aureus [2] it was 2 µg/mL (≈ 2.07 µM); with Staphylococcus aureus [3], 0.5 µg/mL (≈ 0.518 µM); in series [4] it was 0.125 µg/mL (≈ 0.13 µM); in [5], 0.25 µg/mL (≈ 0.259 µM); against Staphylococcus aureus [6], 1 µg/mL (≈ 1.04 µM). For the same molecule, the MIC against Staphylococcus aureus [9] is 1 µg/mL (≈ 1.04 µM); in the series with Staphylococcus aureus [10], 1 µg/mL (≈ 1.04 µM); against Escherichia coli, above 2 µg/mL; against Pseudomonas aeruginosa, above 2 µg/mL. In addition, the solubility in series [11] was determined as 20 µg/mL (≈ 20.7 µM). Further, the logP at 1 h in [12] was 2.75.

Regarding `CCOC(=O)[C@H](Cc1ccccc1)NCc1c2c(O)c3c(O)c(C)c4c(c3c1O)C(=O)[C@@](C)(O/C=C/[C@H](OC)[C@@H](C)[C@@H](OC(C)=O)[C@H](C)[C@H](O)[C@H](C)[C@@H](O)[C@@H](C)/C=C/C=C(/C)C(=O)N2)O4`, the minimum inhibitory concentration (MIC) with Staphylococcus aureus [1] amounted to 0.063 µg/mL (≈ 0.0698 µM); in the series on Staphylococcus aureus [2], 0.125 µg/mL (≈ 0.138 µM); with Staphylococcus aureus [3], 0.063 µg/mL (≈ 0.0698 µM); in [4], 0.063 µg/mL (≈ 0.0698 µM); in series [5] it was 0.125 µg/mL (≈ 0.138 µM); in the series with Staphylococcus aureus [6] it was 0.063 µg/mL (≈ 0.0698 µM). Further, the MIC was 0.125 µg/mL (≈ 0.138 µM) with Staphylococcus aureus [7]; 0.125 µg/mL (≈ 0.138 µM) against Staphylococcus aureus [8]; 0.125 µg/mL (≈ 0.138 µM) with Staphylococcus aureus [9]; 0.125 µg/mL (≈ 0.138 µM) against Staphylococcus aureus [10]; above 2 µg/mL against Escherichia coli; above 2 µg/mL with Pseudomonas aeruginosa. The molecule also came in with a solubility in series [11] of 50 µg/mL (≈ 55.4 µM). Moreover, the logP at 1 h in series [12] stood at 2.63.

As to `CO[C@H]1/C=C/O[C@@]2(C)Oc3c(C)c(O)c4c(O)c(c(C=O)c(O)c4c3C2=O)NC(=O)/C(C)=C\C=C\[C@H](C)[C@H](O)[C@@H](C)[C@@H](O)[C@@H](C)[C@H](OC(C)=O)[C@@H]1C`, the MIC is 2 µg/mL (≈ 2.76 µM) in the series on Staphylococcus aureus [1]; above 2 µg/mL in the series on Staphylococcus aureus [2]; above 2 µg/mL against Staphylococcus aureus [3]; 1 µg/mL (≈ 1.38 µM) in series [4]; 1 µg/mL (≈ 1.38 µM) in series [5]; above 2 µg/mL with Staphylococcus aureus [6]. The MIC with Staphylococcus aureus [7], in the series on Staphylococcus aureus [8], with Staphylococcus aureus [9], against Staphylococcus aureus [10], with Escherichia coli and in the series with Pseudomonas aeruginosa was above 2 µg/mL each time.

Consider `CO[C@H]1/C=C/O[C@@]2(C)Oc3c(C)c(O)c4c(O)c(c(/C=N/N5CCN(C)CC5)c(O)c4c3C2=O)NC(=O)/C(C)=C\C=C\[C@H](C)[C@H](O)[C@@H](C)[C@@H](O)[C@@H](C)[C@H](OC(C)=O)[C@@H]1C` [RIFAMPIN], for which the MIC with Staphylococcus aureus [1] stood at 0.008 µg/mL (≈ 0.00972 µM); in the series with Staphylococcus aureus [2] it was 0.016 µg/mL (≈ 0.0194 µM); with Staphylococcus aureus [3], 0.008 µg/mL (≈ 0.00972 µM); in series [4] it was 0.004 µg/mL (≈ 0.00486 µM); in [5] it was 0.008 µg/mL (≈ 0.00972 µM); in the series on Staphylococcus aureus [6] it was 0.016 µg/mL (≈ 0.0194 µM). Besides, the MIC in the series with Staphylococcus aureus [7] is 0.016 µg/mL (≈ 0.0194 µM); in the series on Staphylococcus aureus [8] it was 0.016 µg/mL (≈ 0.0194 µM); in the series on Staphylococcus aureus [9], 0.016 µg/mL (≈ 0.0194 µM); against Staphylococcus aureus [10], 0.016 µg/mL (≈ 0.0194 µM); with Escherichia coli it was above 2 µg/mL; in the series with Pseudomonas aeruginosa, above 2 µg/mL.

As usually defined, the MIC is the lowest concentration found to suppress growth. A high value points to a less susceptible organism. By solubility is commonly meant the concentration that dissolves in the medium under given conditions. High values mean much dissolved substance, low ones little dissolved substance. As a reminder, the logP is the decadic logarithm of the partition coefficient of the neutral form, usually between octanol and water. Lower therefore signals a more hydrophilic compound.
